# Laboratory results taken from patent US20230000773A1, “NOVEL HEADGROUP LIPID COMPOUNDS AND COMPOSITIONS FOR INTRACELLULAR DELIVERY OF THERAPEUTIC AGENTS” (ModernaTX, Inc., priority 2019, published 2023).
# How the values were obtained:
# [1] = Size and polydispersity index of nanoparticles comprising compounds of the disclosure; format: physicochemical; conditions: compound:DSPC:cholesterol:PEG 2 50:10:38:2 mol %
# Excerpt: Lipid nanoparticles (e.g., empty LNPs or loaded LNPs) may be characterized by a variety of methods. For example, microscopy (e.g., transmission electron microscopy or scanning electron microscopy) may be used to examine the morphology and size distribution of a nanoparticle composition. Dynamic light scattering or potentiometry (e.g., potentiometric titrations) may be used to measure zeta potentials. Dynamic light scattering may also be utilized to determine particle sizes. Instruments such as the Zetasizer Nano ZS (Malvern Instruments Ltd, Malvern, Worcestershire, UK) may also be used to measure multiple characteristics of a nanoparticle composition, such as particle size, polydispersity index, and zeta potential.
# (§1) Nanoparticle compositions including a therapeutic and/or prophylactic can be optimized according to the selection of a compound according to Formula (I), (I-1), (A), (A-1), (A-1a), or (A-1b), the selection of additional lipids, the amount of each lipid in the lipid component, and the wt:wt ratio of the lipid component to the therapeutic and/or prophylactic. Nanoparticle compositions including DSPC as a phospholipid, cholesterol as a structural lipid, PEG 2 as a PEG lipid, and a compound according to Formula (I), (I-1), (A), (A-1), (A-1a), or (A-1b) were prepared. The ratios of the lipids were 50:10:38:2 mol % for the lipid according to Formula (I), (I-1), (A), (A-1), (A-1a), or (A-1b):DSPC:cholesterol:PEG 2. […]
# [2] = Encapsulation efficiency (% EE), ribogreen; format: physicochemical; conditions: nanoparticles, compound:DSPC:cholesterol:PEG 2 50:10:38:2 mol %
# Excerpt: The efficiency of encapsulation of a therapeutic and/or prophylactic describes the amount of therapeutic and/or prophylactic that is encapsulated or otherwise associated with a lipid nanoparticle (e.g., an empty LNP or a loaded LNP) after preparation, relative to the initial amount provided. The encapsulation efficiency is desirably high (e.g., close to 100%). The encapsulation efficiency may be measured, for example, by comparing the amount of therapeutic and/or prophylactic in a solution containing the lipid nanoparticle (e.g., an empty LNP or a loaded LNP) before and after breaking up the lipid nanoparticle (e.g., an empty LNP or a loaded LNP) with one or more organic solvents or detergents. Fluorescence may be used to measure the amount of free therapeutic and/or prophylactic (e.g., RNA) in a solution.
# as §1
# [3] = Apparent LNP pKa by 2-(p-toluidino)-6-napthalene sulfonic acid (TNS) assay; format: physicochemical; conditions: pH at half of maximum fluorescence
# [4] = Heparin-sepharose binding of nanoparticles
# [5] = tested on: hEPO mRNA; assay: hEPO expression in CD1-mice after intravenous administration of nanoparticles; format: in vivo; conditions: 6 h after intravenous administration, mRNA dose 0.5 mg/kg, N:P 3.4, compound:DSPC:cholesterol:PEG 2 50:10:38:2
# Experimental: The expression of hEPO mRNA in CD1-mice was measured 6 h after intravenous administration of nanoparticles comprising a compound of the disclosure, DSPC, cholesterol, and PEG 2 in a ratio of 50:10:38:2. […] Each composition was dosed to 8 animals at an mRNA dose of 0.5 mg/kg.
# [6] = Surface hydrophobicity by Generalized Polarization by Laurdan (GPL); format: physicochemical; conditions: normalized Generalized Polarization by Laurdan; higher N-GP = less polar surface
# Excerpt: Nanoparticle compositions including a therapeutic and/or prophylactic can be optimized according to the selection of a compound according to Formula (I), (I-1), (A), (A-1), (A-1a), or (A-1b), the selection of additional lipids, the amount of each lipid in the lipid component, and the wt:wt ratio of the lipid component to the therapeutic and/or prophylactic. Nanoparticle compositions including DSPC as a phospholipid, cholesterol as a structural lipid, PEG 2 as a PEG lipid, and a compound according to Formula (I), (I-1), (A), (A-1), (A-1a), or (A-1b) were prepared. The ratios of the lipids were 50:10:38:2 mol % for the lipid according to Formula (I), (I-1), (A), (A-1), (A-1a), or (A-1b):DSPC:cholesterol:PEG 2.
# Laurdan, a fluorescent aminonaphthalene ketone lipid, was post-inserted into the nanoparticle surface and the fluorescence spectrum of Laurdan was collected to determine the normalized Generalized Polarization (N-GP). Higher N-GP indicates a less polar surface.
Compound,PDI [1],Size (nm) [1] [nm],% EE (ribogreen) [2] [%],LogIC50 (pKa) [3],Relative % Area Bound by LNP [4] [%],Avg. [hEPO] mIU/mL [5] [mIU/mL],Average N-GP [6]
"CCCCCCCCC(CC)OC(=O)CCCCCCCN(CCCCCCCC(=O)OC(CCCCCCCC)CCCCCCCC)CCCNC1=NS(=O)(=O)N=C1NC (stereo not drawn) [Compound 2, Heptadecan-9-yl 8-((3-((4-(methylamino)-1,1-dioxido-1,2,5-thiadiazol-3-yl)amino)propyl)(8-oxo-8-(undecan-3-yloxy)octyl)amino)octanoate]",0.104,60.8,95.1,7.65,21.86,6.57E+04,–
"CCCCCCCCC(CC)OC(=O)CCCCCCCN(CCCCCCCC(=O)OC(CCCCCCCC)CCCCCCCC)CCCNc1c(Cl)c(=O)n(C)n(C)c1=O (stereo not drawn) [Compound 6, Heptadecan-9-yl 8-((3-((5-chloro-1,2-dimethyl-3,6-dioxo-1,2,3,6-tetrahydropyridazin-4-yl)amino)propyl)(8-oxo-8-(undecan-3-yloxy)octyl)amino)octanoate]",0.088,68.4,97.9,6.00,0,8.12E+04,–
"CCCCCCCCC(CC)OC(=O)CCCCCCCN(CCCCCCCC(=O)OC(CCCCCCCC)CCCCCCCC)CCCNC(=O)C(=O)NC (stereo not drawn) [Compound 12, Heptadecan-9-yl 8-((3-(2-(methylamino)-2-oxoacetamido)propyl)(8-oxo-8-(undecan-3-yloxy)octyl)amino)octanoate]",0.139,78.9,85.0,6.13,1.43,2.29E+05,–
"CCCCCCCCC(CC)OC(=O)CCCCCCCN(CCCCCCCC(=O)OC(CCCCCCCC)CCCCCCCC)CCCNC(C(N)=O)C(N)=O (stereo not drawn) [Compound 14, Heptadecan-9-yl 8-((3-((1,3-diamino-1,3-dioxopropan-2-yl)amino)propyl)(8-oxo-8-(undecan-3-yloxy)octyl)amino)octanoate]",0.167,91.2,98.9,7.20,69.04,6.20E+04,–
"CCCCCCCCC(CC)OC(=O)CCCCCCCN(CCCCCCCC(=O)OC(CCCCCCCC)CCCCCCCC)CCCNC(=O)CC(=O)NC (stereo not drawn) [Compound 17, Heptadecan-9-yl 8-({3-[2-(methylcarbamoyl)acetamido]propyl}[8-oxo-8-(undecan-3-yloxy)octyl]amino)octanoate]",0.178,80.8,98.4,7.23,37.96,7.95E+04,–
"CCCCCCCCC(CC)OC(=O)CCCCCCCN(CCCCCCCC(=O)OC(CCCCCCCC)CCCCCCCC)CCCNc1cc[nH]c(=O)n1 (stereo not drawn) [Compound 21, Heptadecan-9-yl 8-((3-((2-oxo-1,2-dihydropyrimidin-4-yl)amino)propyl)(8-oxo-8-(undecan-3-yloxy)octyl)amino)octanoate]",0.141,62.5,99.4,7.59,50.19,7.04E+04,–
"CCCCCCCCC(CC)OC(=O)CCCCCCCN(CCCCCCCC(=O)OC(CCCCCCCC)CCCCCCCC)CCCNc1cc(=O)[nH]c(=O)[nH]1 (stereo not drawn) [Compound 24, Heptadecan-9-yl 8-((3-((2,6-dioxo-1,2,3,6-tetrahydropyrimidin-4-yl)amino)propyl)(8-oxo-8-(undecan-3-yloxy)octyl)amino)octanoate]",0.114,60.8,98.8,6.56,0,2.05E+05,–
"CCCCCCCCC(CC)OC(=O)CCCCCCCN(CCCCCCCC(=O)OC(CCCCCCCC)CCCCCCCC)CCCNc1nc2[nH]cnc2c(=O)[nH]1 (stereo not drawn) [Compound 29, Heptadecan-9-yl 8-((3-((6-oxo-6,9-dihydro-1H-purin-2-yl)amino)propyl)(8-oxo-8-(undecan-3-yloxy)octyl)amino)octanoate]",0.199,63.5,98.9,6.68,6.45,8.93E+04,–
"CCCCCCCCC(CC)OC(=O)CCCCCCCN(CCCCCCCC(=O)OC(CCCCCCCC)CCCCCCCC)CCCNc1ncncc1NC (stereo not drawn) [Compound 35, Heptadecan-9-yl 8-((3-((5-(methylamino)pyrimidin-4-yl)amino)propyl)(8-oxo-8-(undecan-3-yloxy)octyl)amino)octanoate]",0.176,91.2,96,7.27,2.90,3.71E+05,0.888
"CCCCCCCCC(CC)OC(=O)CCCCCCCN(CCCCCCCC(=O)OC(CCCCCCCC)CCCCCCCC)CCCNC1=CC(=O)NC1 (stereo not drawn) [Compound 45, Heptadecan-9-yl 8-((3-((5-oxo-2,5-dihydro-1H-pyrrol-3-yl)amino)propyl)(8-oxo-8-(undecan-3-yloxy)octyl)amino)octanoate]",0.141,81.8,98.5,6.85,31.46,1.15E+05,0.655
"CCCCCCCCC(CC)OC(=O)CCCCCCCN(CCCCCCCC(=O)OC(CCCCCCCC)CCCCCCCC)CCCn1ccc2cc([N+](=O)[O-])ccc21 (stereo not drawn) [Compound 48, Heptadecan-9-yl 8-((3-(5-nitro-1H-indol-1-yl)propyl)(8-oxo-8-(undecan-3-yloxy)octyl)amino)octanoate]",0.196,54.3,−11.2,6.41,0,0,–
"CCCCCCCCC(CC)OC(=O)CCCCCCCN(CCCCCCCC(=O)OC(CCCCCCCC)CCCCCCCC)CCCNc1noc(N)n1 (stereo not drawn) [Compound 50, Heptadecan-9-yl 8-((3-((5-amino-1,2,4-oxadiazol-3-yl)amino)propyl)(8-oxo-8-(undecan-3-yloxy)octyl)amino)octanoate]",0.18,69.8,98.1,6.09,0,1.91E+05,–
CCCCCCCCC(CC)OC(=O)CCCCCCCN(CCCCCCCC(=O)OC(CCCCCCCC)CCCCCCCC)CCCN/C=C1/NC(=O)NC1=O (stereo not drawn) [Compound 52],0.22,53.7,98.2,–,–,–,–
"CCCCCCCCC(CC)OC(=O)CCCCCCCN(CCCCCCCC(=O)OC(CCCCCCCC)CCCCCCCC)CCCNC1=NCC(=O)N1 (stereo not drawn) [Compound 57, Heptadecan-9-yl 8-((3-((4-oxo-4,5-dihydro-1H-imidazol-2-yl)amino)propyl)(8-oxo-8-(undecan-3-yloxy)octyl)amino)octanoate]",0.132,58.8,98.2,6.52,1.09,4.21E+04,0.582
